The values that follow come from patent US5840690A, “Regulation of cell proliferation and differentation using peptides” (priority 1995, dated 1998).

The subject of test [1] is canine adenylate cyclase system. As to conditions: cited from earlier work.
The test system of test [2] is wounds made through the skin with a 6 mm dermal biopsy punch. Briefly: In vivo skin punch assay. As to conditions: rats, 2.0 μg topically in normal saline, immediately after biopsy and each day for 3 days, FIG. 8. The arrangement: species or system Sprague-Dawley rats. The protocol: Male Sprague-Dawley rats were anesthetized by intraperitoneal injection of sodium pentobarbital, their dorsal skin shaved, and wounds made through the skin with a 6 mm dermal biopsy punch. Immediately after the biopsy, and each subsequent day for 3 days, groups of rats received topically 2.0 μg of human PTH (1-34) in normal saline or human PTH (7-34) in normal saline; a control group received normal saline without peptide. Four rats from each group were killed by asphyxiation in a chamber of carbon dioxide, and the extent of wound healing was evaluated as follows. Wounds were photographed with the wound surface perpendicular to the axis of the lens. After development of the film, wound images were projected on to paper at a fixed distance, traced with a pencil, and cut out with sharp scissors. The relative sizes of the wounds were assessed by weighing the cut-out paper tracings. Percent healing was calculated from the average decrease in wound area for each group.

In test [3] the test system is cultured human keratinocytes. The experiment in a line: Keratinocyte culture: counts of total cells, basal cells and cornified envelopes. In kind it is cell-based. The method, then:
Keratinocytes were grown in culture as follows. NIH 3T3 cells were plated at 0.5×10^5 cells per 35-mm tissue-culture dish, and two days later were lethally irradiated with a cobalt-60 source (5000 rads). Keratinocytes were obtained from neonatal foreskin after overnight trypsinization at 4° C. and treatment with 0.02% EDTA. Keratinocytes were plated in 2 ml of serum-free medium per dish on the lethally irradiated 3T3 cells. Each experiment was performed on primary or secondary keratinocyte cultures obtained from different skin samples.
In addition, 1,25-(OH)2 D3 was tested, alone and in combination with PTH (7-34), and PTH (1-34) and PTH (7-34) were tested together.
Beginning at one week in culture, groups of triplicate plates of keratinocytes were incubated with the aforementioned compounds or vehicle alone. After one week of dosing, the medium was removed from each culture and centrifuged, and the pellet was resuspended for the counting of the desquamated floater cells. A hemacytometer was used to count the different cell types under a phase-contrast microscope. The attached cells were then trypsinized for 30-40 min with 0.1 EDTA and 0.1% trypsin and then neutralized with medium. The keratinocytes were pelleted and resuspended in a known volume of medium. Duplicate aliquots were taken for counting the basal (small, rounded) and squamous (larger, irregular-shaped, flattened) cells. The remaining cells were pelleted and treated with 10 mM Tris-HCl (pH 7.4) with 1% beta-mercaptoethanol and 1% sodium dodecyl sulfate (SDS) at room temperature for 10 min. Only cells with cornified envelopes were present after this treatment.
Each culture was thus evaluated for its total cell content, number of basal cells, and cornified envelopes, as described above.

As to “Parathyroid Hormone (1-34), Rat [Rat PTH (1-34)]”, in test [1], the “activity relative to bovine PTH (1-34)” value was 2-4 fold and the “activity relative to human PTH (1-34)” value is on record as 8-10 fold.
Regarding `CC[C@H](C)[C@H](NC(=O)[C@H](CCC(=O)O)NC(=O)[C@H](CO)NC(=O)[C@@H](NC(=O)[C@@H](N)CO)C(C)C)C(=O)N[C@@H](CCC(N)=O)C(=O)N[C@@H](CC(C)C)C(=O)N[C@@H](CCSC)C(=O)N[C@@H](Cc1c[nH]cn1)C(=O)N[C@@H](CC(N)=O)C(=O)N[C@@H](CC(C)C)C(=O)NCC(=O)N[C@@H](CCCCN)C(=O)N[C@@H](Cc1c[nH]cn1)C(=O)N[C@@H](CC(C)C)C(=O)N[C@@H](CC(N)=O)C(=O)N[C@@H](CO)C(=O)N[C@@H](CCSC)C(=O)N[C@@H](CCC(=O)O)C(=O)N[C@@H](CCCNC(=N)N)C(=O)N[C@H](C(=O)N[C@@H](CCC(=O)O)C(=O)N[C@@H](Cc1c[nH]c2ccccc12)C(=O)N[C@@H](CC(C)C)C(=O)N[C@@H](CCCNC(=N)N)C(=O)N[C@@H](CCCCN)C(=O)N[C@@H](CCCCN)C(=O)N[C@@H](CC(C)C)C(=O)N[C@@H](CCC(N)=O)C(=O)N[C@@H](CC(=O)O)C(=O)N[C@H](C(=O)N[C@@H](Cc1c[nH]cn1)C(=O)N[C@@H](CC(N)=O)C(=O)N[C@@H](Cc1ccccc1)C(=O)O)C(C)C)C(C)C` [PTH (1-34), Parathyroid Hormone (1-34), Human], the “wound healing (percent healing from decrease in wound area)” value in test [2] is “biologically effective in enhancing wound healing”. The “wound healing (percent healing from decrease in wound area)” value in test [2] (listed as human PTH (1-34)) is “enhance wound healing”. Besides, in test [3] (10^-7 and 10^-8 M), the “growth of human cultured keratinocytes” value is “inhibits growth” and the “terminal differentiation of human cultured keratinocytes” value is given as “induces terminal differentiation”. For the same compound, in test [3] (compound alone, FIGS. 6 and 7), the “total number of cornified envelopes, percent of control” value is recorded as “increased, in a dose-dependent manner”. Also, the “total number of basal cells” value in test [3] (peptide alone at 10^-8 M and 10^-7 M, one week of dosing) is on record as “significantly decreased”. Further, in test [3] (peptide by itself), the “proliferation and terminal differentiation of cultured human keratinocytes (conclusion from the results)” value is “biologically effective in inhibiting the proliferation of cultured human keratinocytes and inducing terminal differentiation”.
